Tests used:
[1] = tested on: Krox24; test: Krox24 immunohistochemical staining of hippocampus; type: in vivo, male Wistar rats; conditions: CA1-2 regions; vs vehicle
Description: (§1) Aged rats (male Wistar rats, 18-20 months old) were divided into four groups: two vehicle-treated (groups 1 and 3) and two G-2-AllylP treated (groups 2 and 4) (all groups n=6-8). Cyclic G-2-AllylP was synthesised by the Department of Medicinal Chemistry and dissolved in normal saline before the treatment. On day 1 a single dose of cyclic G-2-AllylP was given centrally (20 ng/animal, i.c.v.) to the animals in groups 2 and 4; saline was administered to groups 1 and 3. The memory tests using Novel Object Recognition Test started either on day 3 (groups 1 and 2) or 24 (groups 3 and 4) after the treatment. On the completion of the NORT, the rats were killed with an overdose of sodium pentobarbital and were perfused transcardially with normal saline followed by 10% formalin. Tissues collected at day 7 in groups 1 and 2, and at day 28 from groups 3 and 4. The brains were kept in the same fixative for a minimum of 2 days before being processed using a standard paraffin embedding procedure. Briefly, small blocks (10×10×3 mm) of tissue were fixed for up to 24 hrs. The blocks were then infiltrated and embedded with paraffin and cut in ribbons and mounted on slides. Slides were then stored until immunostaining was commenced. Synaptogenesis in brain tissue was examined using immunohistochemical staining.
The neuronal transcript factor Krox24 staining is used as a marker for neuronal plasticity. […]

[2] = tested on: NMDA NR1 subunit; test: NMDA receptor-1 immunohistochemical staining of hippocampus; type: in vivo, male Wistar rats; conditions: CA1 and CA3; post-treatment
Description: as §1, with “staining. […]” for “staining.”

[3] = tested on: interleukin 1 beta; test: PBBI in rats: IL-1beta ELISA; type: in vivo; conditions: 30 mg/kg oral gavage once daily
Excerpt: The unilateral frontal PBBI model, which mimics the ballistic dynamics of a bullet or fragment wound to the head (Williams, 2003; Williams, 2006), was induced by stereotactic insertion of a custom probe through the right frontal cortex. A temporary cavity was formed by the rapid inflation/deflation (i.e. <40 msec) of an elastic balloon attached to the end of the probe. The PBBI apparatus consisted of a computer-controlled hydraulic pressure generator (Mitre Corp McLean, Va.), a PBBI probe and a stereotaxic frame equipped with a custom-designed probe holder as previously described (Lu, 2009; Williams, 2003). The injury severity was determined by the size of the balloon under control of the computerized hydraulic pressure. The balloon diameter calibrated to 0.63 cm expansion represented 10% of the total rat brain volume thus expressing a 10% PBBI. All surgeries were done under anaesthesia. Groups tested: Sham+vehicle, PBBI+vehicle, PBBI+cG-2-AllylP (30 mg/kg by oral gavage, 30 min post-injury, and again once daily until endpoint). […]
Target proteins were quantified with interleukin 1 beta (“IL-1beta”) (GenWay Biotech GWB-SKR107) and interleukin-6 (“IL-6”) (GenWay Biotech GWB-ZZD100) ELISAs according to manufacturer's instructions. Levels were calculated and normalized to total protein concentration as determined by BCA assay (n=9-10 per group).

[4] = tested on: p-Akt; test: Phospho-flow cytometry of lymphocytes, p-Akt; type: in vivo; conditions: fmr1-knockout mice; 15, 30, 60 and 240 minutes after a single treatment
Excerpt: Lymphocytes are isolated from five fmr1-knockout and five wild-type titter mate control mice, per study time after injection with cG-2-AllylP. Lymphocytes are examined for activation of two signaling effectors, p-ERK1/2 and p-Akt using phosphorylation status as a measure of activation by flow cytometry (phospho-flow).
2. Flow cytometry total and phosphorylated AKT in lymphocytes

[5] = tested on: Male patients having Fragile X Syndrome
Description: Symptoms are evaluated using one or more of the clinical evaluative tools discussed herein above. Each patient is scored according to one or more clinical evaluative tool for one or more of Repetitive Behavior (RBB), Anxiety, and Sociability. A Clinical Global Impression-Severity (CGI-S) score of 4 or greater, or an ABC total score of 30 or greater are enrolled.
The enrolled patients are divided into groups. […] Placebo (n=20) is strawberry diluent and water.
Efficacy is determined using Clinical Global Impression of Severity (CGI-S), Clinical Global Impression of Improvement (CGI-I), Fragile X Syndrome Rating Scale, clinician-completed Fragile X Domain Specific Concerns (Visual Analog Scale), Caregiver Top Three Concerns (Visual Analogue Scale), Aberrant Behavior Checklist, Vineland Adaptive Behavior Scale, CASI-16, CYBOCS-PDD, seizure diary, computerized eye tracking, computerized measurement of cognition using the KiTap, and the Expressive Language Sampling Task.
Serum levels and changes of standard hematology and chemistry parameters (including thyroid function) are calculated from Baseline through to Day 70. Fundoscopy and tonsil size is documented at Baseline, and Days 14, 28, 42, 36, 70 and 84. […] ECG is assessed at Screening, Baseline, Days 28, 42, 36 and 70. […]

[6] = tested on: animals with scopolamine-induced memory impairment; test: Morris Water Maze (MWM) test with scopolamine-induced memory impairment; type: in vivo, Wistar rats; conditions: 30 mg/kg; daily; oral
Excerpt: The first part of the study involved acute testing of cG-2-AllylP in the Morris Water Maze Memory (MWM) model. The MWM test is one of the most frequently used tests for assessing spatial memory in rats and is well recognized to accurately predict effects of disease and treatment on spatial memory generally. Therefore, the MWM test reflects effects of disease and treatment in human subjects. The standard procedure for MWM was followed. We used a circular swimming pool (80 cm depth×150 cm diameter) filled with opaque water, with the temperature maintained at 20° C. […] On days 1-4 of the experiment rats underwent memory acquisition trials with 6 trials (60 seconds each) in each day of testing (habituation phase). Latency to reach the platform was recorded and the daily reduction of average latency was used to measure the capability to learn where the hidden platform was. […] Experimental groups are detailed in the Table 4 below. On […], the probe MWM test was performed with the platform removed. There were 6 trials, each of maximum duration of 60s, at least 3 min rest between trials). […] Data was collected and analysed using Any-maze (v4.2) software. The data generated from behavioural tests was analysed using one-way ANOVA for determining the difference between the aged-groups. […]

C=CC[C@]12CCCN1C(=O)CNC2=O [cG-2-AllylP, (8aS)-Allyl-hexahydropyrrolo[1,2-a]pyrazine-1,4-dione]
density of the Krox24 staining [1]: trend towards the increased density
changes in the NMDA receptors [2]: not so pronounced
IL1-beta levels ([3]; 3 days after PBBI): increased IL1-beta levels at 3 days after PBBI
IL1-beta levels ([3]; 7 days after PBBI): decreased levels of IL1-beta at 7 days after PBBI
mean fluorescent intensity (MFI) for p-AKT [4]: decreases at all time points
clinical outcomes (evaluative tools) ([5]; 35 or 70 mg/kg b.i.d. oral, 28 days): clinically relevant and significant effects to improve clinical outcomes
pERK and pAkt levels ([5]; peripheral lymphocytes): normalizes pERK and pAkt levels
cognitive impairment induced by scopolamine (MWM) [6]: significantly reversed the cognitive impairment induced by scopolamine

From patent publication US11197856B2, “Bicyclic compounds and methods for their use in treating autism” (priority 2013, dated 2021)
